The results in this text go back to patent EP0361645B1, “Organic hydrazine derivatives for pharmaceutical use” (ROHM AND HAAS COMPANY, priority 1988, dated 1990).

The structures appear in SMILES notation.

In one assay the test system is Kr cells. Nature of the assay: Process elaboration and inhibition of cell proliferation in Kr cells. The format is cell-based, Drosophila. As to conditions: at saturating concentrations. The protocol:
The invention will now be further described by way of exemplification and by reference to the drawings in which; • Figure 1. Both 20-hydroxyecdysone and Example No. 3 induce process elaboration (A) and inhibition of cell proliferation (B) in Kr cells in a dose-dependent manner. Initial cell density was 2 X 10^6 cells/ml; after incubation of 1 ml aliquots of the cells with the compound for 48 hours the cells were triturated gently and the percentage of cells responding (with processes longer than approximately 17 um, see Cherbas et al. 189 Wilhelm Roux's Arch. 1 (1980)) and total cell density was determined by hemocytom- eter counting, relative to ethanol (1 ul)-treated controls. Determinations were in triplicate for each dose. […] Induction of acetylcholinesterase by varying concentrations of 20-hydroxyecdysone and Example No. 3. Kr cells at an initial density of 3 X 10^6 cells/ml (10 ml per sample) were incubated with the agonist for three days. After harvesting, by centrifugation at 3000 X g, the cell pellets were washed with Robb's Drosophila saline (18, 2 X 5 ml) at 4 ° C, then lysed by sonication in 1 ml of phosphate buffer (pH 7.4, I = 0.1 M) containing 0.5 M NaCI, 0.25 M EDTA and 0.5% TRITON? X-100. See Cherbas, 197 Science 275 (1977). Triton is a registered trademark of Rohm and Haas Company for a alkylaryl polyoxyethylene glycol surfactant. After centrifugation at 16,000 X g, the supernatants were assayed for acetylcholinesterase activity by an adaptation of the method of Ellman et al., 7 Biochem. Pharmacol. 88 (1961), by subtracting out any 412 nm absorbance observed in incubations in the presence of 2 X 10-5 eserine sulfate. Thus reaction mixtures contained 50 ul of enzyme extract, 20 ul eserine (blank tubes only) and 1.0 ml of 0.5 mM acetylthiocholine, 0.3 mM dithiobisnitrobenzoic acid in phosphate buffer (pH 7.4, I = 0.1 M). Incubations were at 25 ° C for two hours; reactions in active tubes were terminated by addition of eserine. Absorbance at 412 nm was then measured. Protein concentration in extracts was measured by the Biorad method. […] Scatchard plot of ^3H-ponasterone A binding to Kr cell cytosolic receptor extracts in the presence of differing concentrations of Example No. 3. Cytosolic extract preparation and ecdysteroid receptor assays were essentially as described in Sage, 111 Meth. in Enzymol. 458 (1985). Example No. 3 was added in 1 ul DMSO to 50 ul of radioligand in 10 mM Tris buffer (pH 7.2) and 50 ul of undiluted cytosol extract. […] Ecdysteroid titers were measured by a radioimmunoassay adapted from Warren et al., 40 Experientia 393 (1984) with Protein A-Staph. aureus suspension (Sigma) used as the reagent to separate bound from free ligand. […]

The next assay deals with T1, ecdysone receptor (Drosophila melanogaster, UniProt P34021).
T1 construct: endogenous in cells; host or cells: Drosophila Kr (Kc) cells, undiluted cytosolic extract
T1 sequence (P34021 1-878): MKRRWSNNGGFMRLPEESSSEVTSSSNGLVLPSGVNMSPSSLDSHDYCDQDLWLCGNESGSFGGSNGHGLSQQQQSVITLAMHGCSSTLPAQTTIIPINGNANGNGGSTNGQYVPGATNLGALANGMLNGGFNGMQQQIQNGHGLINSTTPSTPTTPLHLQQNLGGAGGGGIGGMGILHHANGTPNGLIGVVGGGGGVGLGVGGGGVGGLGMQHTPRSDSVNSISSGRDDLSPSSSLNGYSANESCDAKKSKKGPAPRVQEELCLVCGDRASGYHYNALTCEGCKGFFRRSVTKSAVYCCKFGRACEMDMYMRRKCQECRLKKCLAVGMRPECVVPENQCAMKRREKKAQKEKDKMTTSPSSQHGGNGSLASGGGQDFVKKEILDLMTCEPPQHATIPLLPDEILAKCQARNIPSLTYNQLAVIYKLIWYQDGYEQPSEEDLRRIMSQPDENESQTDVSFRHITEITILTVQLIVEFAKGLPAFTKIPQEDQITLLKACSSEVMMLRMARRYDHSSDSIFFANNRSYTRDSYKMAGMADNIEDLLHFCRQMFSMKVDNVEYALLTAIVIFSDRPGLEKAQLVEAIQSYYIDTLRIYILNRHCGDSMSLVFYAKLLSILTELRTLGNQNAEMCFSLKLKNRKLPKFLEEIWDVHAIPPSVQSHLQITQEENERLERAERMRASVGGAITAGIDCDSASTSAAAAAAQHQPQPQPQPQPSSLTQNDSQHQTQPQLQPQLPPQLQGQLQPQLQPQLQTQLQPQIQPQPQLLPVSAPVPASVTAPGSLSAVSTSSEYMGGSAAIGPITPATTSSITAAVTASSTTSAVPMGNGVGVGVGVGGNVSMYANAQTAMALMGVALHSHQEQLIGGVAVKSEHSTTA
T1 sequence (P20153 1-508 partner): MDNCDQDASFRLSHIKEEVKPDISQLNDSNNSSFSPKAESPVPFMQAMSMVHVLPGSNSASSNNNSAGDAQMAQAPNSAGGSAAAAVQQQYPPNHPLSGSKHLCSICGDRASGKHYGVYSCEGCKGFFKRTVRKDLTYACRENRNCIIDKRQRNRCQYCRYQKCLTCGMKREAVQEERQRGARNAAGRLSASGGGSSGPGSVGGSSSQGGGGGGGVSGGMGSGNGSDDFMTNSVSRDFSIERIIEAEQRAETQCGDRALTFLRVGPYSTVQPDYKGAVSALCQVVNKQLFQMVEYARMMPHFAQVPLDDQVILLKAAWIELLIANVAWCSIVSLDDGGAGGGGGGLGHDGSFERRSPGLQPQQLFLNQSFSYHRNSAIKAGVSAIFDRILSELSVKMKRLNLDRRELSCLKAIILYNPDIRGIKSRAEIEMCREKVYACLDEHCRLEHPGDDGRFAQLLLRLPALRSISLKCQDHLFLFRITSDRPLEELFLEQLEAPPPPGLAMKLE
Nature of the assay: ^3H-ponasterone A binding to / displacement from Kr cell cytosolic receptor extracts. The note with it: for displacement of ^3H-ponasterone A from cytosolic receptor extracts: at saturating concentrations. As to the method: The invention will now be further described by way of exemplification and by reference to the drawings in which; • Figure 1. Both 20-hydroxyecdysone and Example No. 3 induce process elaboration (A) and inhibition of cell proliferation (B) in Kr cells in a dose-dependent manner. Initial cell density was 2 X 10^6 cells/ml; after incubation of 1 ml aliquots of the cells with the compound for 48 hours the cells were triturated gently and the percentage of cells responding (with processes longer than approximately 17 um, see Cherbas et al. 189 Wilhelm Roux's Arch. 1 (1980)) and total cell density was determined by hemocytom- eter counting, relative to ethanol (1 ul)-treated controls. Determinations were in triplicate for each dose. […] Induction of acetylcholinesterase by varying concentrations of 20-hydroxyecdysone and Example No. 3. Kr cells at an initial density of 3 X 10^6 cells/ml (10 ml per sample) were incubated with the agonist for three days. After harvesting, by centrifugation at 3000 X g, the cell pellets were washed with Robb's Drosophila saline (18, 2 X 5 ml) at 4 ° C, then lysed by sonication in 1 ml of phosphate buffer (pH 7.4, I = 0.1 M) containing 0.5 M NaCI, 0.25 M EDTA and 0.5% TRITON? X-100. See Cherbas, 197 Science 275 (1977). Triton is a registered trademark of Rohm and Haas Company for a alkylaryl polyoxyethylene glycol surfactant. After centrifugation at 16,000 X g, the supernatants were assayed for acetylcholinesterase activity by an adaptation of the method of Ellman et al., 7 Biochem. Pharmacol. 88 (1961), by subtracting out any 412 nm absorbance observed in incubations in the presence of 2 X 10-5 eserine sulfate. Thus reaction mixtures contained 50 ul of enzyme extract, 20 ul eserine (blank tubes only) and 1.0 ml of 0.5 mM acetylthiocholine, 0.3 mM dithiobisnitrobenzoic acid in phosphate buffer (pH 7.4, I = 0.1 M). Incubations were at 25 ° C for two hours; reactions in active tubes were terminated by addition of eserine. Absorbance at 412 nm was then measured. Protein concentration in extracts was measured by the Biorad method. […] Scatchard plot of ^3H-ponasterone A binding to Kr cell cytosolic receptor extracts in the presence of differing concentrations of Example No. 3. Cytosolic extract preparation and ecdysteroid receptor assays were essentially as described in Sage, 111 Meth. in Enzymol. 458 (1985). Example No. 3 was added in 1 ul DMSO to 50 ul of radioligand in 10 mM Tris buffer (pH 7.2) and 50 ul of undiluted cytosol extract. After incubation overnight at 0.5 ° C, bound label was separated from free by addition of 300 ul 1% HCI-washed charcoal (Sigma) and 0.1% Dextran T70 (Pharmacia) in Tris buffer, centrifugation (13,000 X g, 3 min, 4 ° C) and liquid scintillation counting of a 300 ul aliquot of the supernatant in 15 ml Hydrofluor (National Diagnostics). Points are means of duplicate determinations. […] Relative ability of 20 hydroxyecdysone and Example No. 3 to displace ^3H-ponasterone A from cytosolic receptor extracts. Conditions were as in Figure 3 except that only 0.5 nM ponasterone A was used. • Points are means of duplicate determinations. For 20-hydroxyecdysone EC50 = 0.1 uM while for Example No. 3 EC50 = 3.0 uM. Control binding = 10 femtomoles ^3H-ponasterone A bound per mg cytosol protein. • Figure 4. Effects of 10 ppm Example No. 3 administered in artificial diet to newly ecdysed fourth instar (L4) M. sexta, monitoring (A)immunoreactive hemolymph ecdysteroid titers and (B)weight gain. Ecdysteroid titers were measured by a radioimmunoassay adapted from Warren et al., 40 Experientia 393 (1984) with Protein A-Staph. aureus suspension (Sigma) used as the reagent to separate bound from free ligand. The antiecdysone antiserum was formed by reaction of 20-hydroxyecdysone with carboxymethox- yamine resulting in the corresponding ecdysteroid 6-oxime acid. […] All samples were diluted appropriately in borate buffer pH 8.0 and assayed in duplicate. […]

Another assay deals with antiecdysone antiserum. Nature of the assay: Binding by antiecdysone antiserum (radioimmunoassay). As to conditions: ^3H-alpha ecdysone as the radioligand. As to the method: The invention will now be further described by way of exemplification and by reference to the drawings in which; • Figure 1. Both 20-hydroxyecdysone and Example No. 3 induce process elaboration (A) and inhibition of cell proliferation (B) in Kr cells in a dose-dependent manner. Initial cell density was 2 X 10^6 cells/ml; after incubation of 1 ml aliquots of the cells with the compound for 48 hours the cells were triturated gently and the percentage of cells responding (with processes longer than approximately 17 um, see Cherbas et al. 189 Wilhelm Roux's Arch. 1 (1980)) and total cell density was determined by hemocytom- eter counting, relative to ethanol (1 ul)-treated controls. Determinations were in triplicate for each dose. […] Induction of acetylcholinesterase by varying concentrations of 20-hydroxyecdysone and Example No. 3. Kr cells at an initial density of 3 X 10^6 cells/ml (10 ml per sample) were incubated with the agonist for three days. After harvesting, by centrifugation at 3000 X g, the cell pellets were washed with Robb's Drosophila saline (18, 2 X 5 ml) at 4 ° C, then lysed by sonication in 1 ml of phosphate buffer (pH 7.4, I = 0.1 M) containing 0.5 M NaCI, 0.25 M EDTA and 0.5% TRITON? X-100. See Cherbas, 197 Science 275 (1977). Triton is a registered trademark of Rohm and Haas Company for a alkylaryl polyoxyethylene glycol surfactant. After centrifugation at 16,000 X g, the supernatants were assayed for acetylcholinesterase activity by an adaptation of the method of Ellman et al., 7 Biochem. Pharmacol. 88 (1961), by subtracting out any 412 nm absorbance observed in incubations in the presence of 2 X 10-5 eserine sulfate. […] Absorbance at 412 nm was then measured. Protein concentration in extracts was measured by the Biorad method. […] Ecdysteroid titers were measured by a radioimmunoassay adapted from Warren et al., 40 Experientia 393 (1984) with Protein A-Staph. aureus suspension (Sigma) used as the reagent to separate bound from free ligand. […]

For `O=C(NC(=O)c1c(F)cccc1F)Nc1cc(Cl)c(Oc2ncc(C(F)(F)F)cc2Cl)c(Cl)c1` [1-(3,5-dichloro-4-(3-chloro-5-trifluoromethyl-2-pyridyloxy)phenyl)-3-(2,6-difluorobenzoyl)urea], the “ecdysone-like responses in whole Kr cells” value in the assay on Kr cells is “failed to produce ecdysone-like responses”. Also, the “displacement of ^3H-ponasterone A from cytosolic receptor extracts” value on ecdysone receptor is listed as “did not displace”.
On the same counts, the results for `O=C(NC(=O)c1c(F)cccc1F)Nc1ccc(Cl)cc1` [1-(4-chloro-phenyl)-3-(2,6-difluorobenzoyl)urea] are “failed to produce ecdysone-like responses” and “did not displace”.
Consider `CC(C)CC[C@@H](O)[C@](C)(O)[C@H]1CC[C@@]2(O)C3=CC(=O)[C@@H]4C[C@@H](O)[C@@H](O)C[C@]4(C)[C@H]3CC[C@]12C` [^3H-ponasterone A, ponasterone A], for which the Bmax turned out to be 0.79 nm at ecdysone receptor (Figure 3A legend, in the absence of Example No. 3) and 0.71 nM at ecdysone receptor (text b415, in the absence of Example No. 3). Besides, binding at ecdysone receptor (Scatchard plot, in the absence of Example No. 3) was put at a Kd of 290 pM.
In the case of `C[C@H]([C@H](O)CCC(C)(C)O)[C@H]1CC[C@@]2(O)C3=CC(=O)[C@@H]4C[C@@H](O)[C@@H](O)C[C@]4(C)[C@H]3CC[C@]12C` [alpha-ecdysone, reference compound], in the assay with antiecdysone antiserum, the “fold greater affinity than 20-hydroxyecdysone” value is recorded as 2.7 fold.
